This passage reports IC50 results from patent US10947222B2, “Indole derivatives useful as inhibitors of diacylglyceride O-acyltransferase 2” (Merck Sharp & Dohme Corp., priority 2016, dated 2021).

As a reminder, the IC50 is the midpoint of a concentration-inhibition curve.

Sequence of human DGAT2 (hDGAT2) (Q96PD7 whole entry): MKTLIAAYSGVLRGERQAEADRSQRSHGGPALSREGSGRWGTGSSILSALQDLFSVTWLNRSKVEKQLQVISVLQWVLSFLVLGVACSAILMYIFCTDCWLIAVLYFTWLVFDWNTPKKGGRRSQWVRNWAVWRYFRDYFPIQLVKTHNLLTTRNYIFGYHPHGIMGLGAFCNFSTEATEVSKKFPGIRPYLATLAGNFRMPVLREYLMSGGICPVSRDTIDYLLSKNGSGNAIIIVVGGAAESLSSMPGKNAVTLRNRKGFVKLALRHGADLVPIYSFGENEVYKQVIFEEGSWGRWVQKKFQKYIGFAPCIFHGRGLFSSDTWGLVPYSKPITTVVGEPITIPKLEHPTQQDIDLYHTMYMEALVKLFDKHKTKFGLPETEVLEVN

This assay deals with human DGAT2 (hDGAT2) (Homo sapiens (Human), UniProt Q96PD7). The experiment in a line: DGAT2 enzymatic activity assay (triolein formation, LC/MS/MS). It counts as biochemical. The note with it: Sf-9 membrane prep expressing hDGAT2; 25 μM diolein, 10 μM oleoyl-CoA; triolein by LC/MS/MS. The method, boiled down:
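Membranes from Sf-9 cells infected with untagged baculovirus hDGAT2 were incubated at rt in 100 mM Tris.Cl pH 7.0, 20 mM MgCl2, 5% ethanol with 25 μM diolein and 10 μM oleoyl-CoA (10 ng/μL membrane). Triolein was quantified by LC/MS/MS against internal standard; IC50 by 4-parameter sigmoidal fit.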
With `O=C(NC1CCS(=O)(=O)C1)c1ccc2c(-c3ccccc3Cl)cn(-c3ccc(F)cc3)c2c1` (single isomer, unassigned) [Example 2-B, 3-(2-chlorophenyl)-N-(1,1-dioxidotetrahydrothiophen-3-yl)-1-(4-fluorophenyl)-1H-indole-6-carboxamide], half-maximal inhibition (IC50) required 0.03 µM.
To `CC1(NC(=O)c2ccc3c(-c4ccccc4Cl)c(C#N)n(-c4ccc(F)cc4)c3c2)CCS(=O)(=O)C1` (single isomer, unassigned; enantiomer b) [Example 9-B, 3-(2-chlorophenyl)-2-cyano-1-(4-fluorophenyl)-N-(3-methyl-1,1-dioxidotetrahydrothiophen-3-yl)-1H-indole-6-carboxamide (Enantiomer B)] belongs 0.235 µM.
To `Cc1cccc(-c2cn(-c3ccc(F)cc3)c3cc(C(=O)NC4CCS(=O)(=O)C4)ccc23)c1` (racemic) [Example 34, N-(1,1-dioxidotetrahydrothiophen-3-yl)-1-(4-fluorophenyl)-3-(3-methylphenyl)-1H-indole-6-carboxamide (racemic)] belongs 0.013 µM; to `O=C(NC1CCS(=O)(=O)C1)c1ccc2c(-c3cccc(Cl)c3Cl)cn(-c3ccc(F)cc3)c2c1` (racemic) [Example 44, 3-(2,3-dichlorophenyl)-N-(1,1-dioxidotetrahydrothiophen-3-yl)-1-(4-fluorophenyl)-1H-indole-6-carboxamide (racemic)], 0.019 µM; to `CC(C)(CN1CCOCC1)NC(=O)c1ccc2c(-c3ccccc3Cl)cn(-c3ccc(F)cc3)c2c1` [Example 4, 3-(2-chlorophenyl)-1-(4-fluorophenyl)-N-(2-methyl-1-morpholinopropan-2-yl)-1H-indole-6-carboxamide], 0.629 µM.
To `O=C(NC1CCS(=O)(=O)C1)c1ccc2c(-c3cncnc3)cn(-c3ccc(F)cc3)c2c1` (racemic) [Example 50, N-(1,1-dioxidotetrahydrothiophen-3-yl)-1-(4-fluorophenyl)-3-pyrimidin-5-yl-1H-indole-6-carboxamide (racemic)] belongs 0.321 µM; to `O=C(NC1CCS(=O)(=O)C1)c1ccc2c(-c3ccccc3OC(F)F)cn(-c3ccc(F)cc3)c2c1` (racemic) [Example 42, 3-[2-(difluoromethoxy)phenyl]-N-(1,1-dioxidotetrahydrothiophen-3-yl)-1-(4-fluoropheny)-1H-indole-6-carboxamide (racemic)], 0.108 µM; to `COc1cccc(-c2cn(-c3ccc(F)cc3)c3cc(C(=O)NC4CCS(=O)(=O)C4)ccc23)c1` (racemic) [Example 33, N-(1,1-dioxidotetrahydrothiophen-3-yl)-1-(4-fluorophenyl)-3-(3-methoxyphenyl)-1H-indole-6-carboxamide (racemic)], 0.004 µM.
